Some test systems named below: RPMI-8226 leukemia; SN12C renal; MALME-3M melanoma; ACHN renal; T-47D breast; HCT-116 colon; RXF 393 renal; KM12 colon; M14 melanoma; HT29 colon.
Assay in all cases: growth of human tumour cells (NCI), 48 h

Each structure is given as a SMILES string.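 Results reflect a 48-hour exposure of cells in 96-well plates to compound at five concentrations. GI50: concentration for 50% inhibition of growth. TGI denotes the concentration required for complete inhibition of growth.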

For `CC(SCc1ccccc1)C(=O)O` (stereo not given), the TGI in the experiment with RPMI-8226 leukemia, with SN12C renal, in the experiment on MALME-3M melanoma, with ACHN renal, in the experiment on T-47D breast and with HCT-116 colon was > 100 µM in each case. Besides, the TGI in the experiment on RXF 393 renal, with KM12 colon, with M14 melanoma and in the experiment on HT29 colon was > 100 µM in each case.

As for `O=c1/c(=N\Nc2ccccc2)c2cccc3ccc4cccc1c4c32`, the TGI is > 100 µM in the experiment with RPMI-8226 leukemia; > 100 µM in the experiment with SN12C renal; > 100 µM in the experiment with MALME-3M melanoma; 88.6 µM in the experiment on ACHN renal; > 100 µM with T-47D breast; > 100 µM with HCT-116 colon. Moreover, the TGI with RXF 393 renal, in the experiment with KM12 colon, in the experiment with M14 melanoma and in the experiment with HT29 colon was > 100 µM throughout.

For `CO/N=C(\COc1ccc2oc(-c3ccccc3)cc(=O)c2c1)c1ccc(F)cc1`, the GI50 in the experiment with RPMI-8226 leukemia was 24.6 µM; in the experiment with SN12C renal, 16.9 µM; in the experiment with MALME-3M melanoma, 30.3 µM; in the experiment on ACHN renal, 17.2 µM; in the experiment on T-47D breast it was 21.5 µM; with HCT-116 colon, 20.3 µM. The GI50 is 15.8 µM with RXF 393 renal, 46.9 µM with KM12 colon, 32.2 µM with M14 melanoma and 31.4 µM in the experiment with HT29 colon. Moreover, the TGI with RPMI-8226 leukemia is > 100 µM; in the experiment with SN12C renal, 35 µM; in the experiment with MALME-3M melanoma, 67.1 µM; in the experiment on ACHN renal, 34.5 µM; with T-47D breast it was 59.3 µM; in the experiment with HCT-116 colon, 48.2 µM. In addition, the TGI is 44.7 µM with RXF 393 renal, > 100 µM with KM12 colon, > 100 µM with M14 melanoma and > 100 µM in the experiment with HT29 colon.

Consider `CCn1c(-c2nonc2N)nc2c(N3CCCC3)nccc21`, for which the GI50 in the experiment on RPMI-8226 leukemia is 16.5 µM; in the experiment with SN12C renal, 15 µM; in the experiment with MALME-3M melanoma, > 25 µM; in the experiment on ACHN renal, 9.73 µM; in the experiment on T-47D breast, 20.4 µM; in the experiment on HCT-116 colon it was 8.47 µM. Moreover, the GI50 in the experiment with RXF 393 renal is 9.63 µM; with KM12 colon, 15.7 µM; with M14 melanoma, 24.5 µM; in the experiment with HT29 colon, 7.97 µM. In addition, the TGI with RPMI-8226 leukemia, in the experiment on SN12C renal, with MALME-3M melanoma, in the experiment with ACHN renal, in the experiment with T-47D breast and with HCT-116 colon was > 25 µM in each case. Further, the TGI with RXF 393 renal, in the experiment with KM12 colon, with M14 melanoma and in the experiment on HT29 colon was > 25 µM throughout.

On to `O=C([O-])CC(=O)[O-].[NH-][C@@H]1CCCC[C@H]1[NH-].[Pt+4]`, for which the GI50 in the experiment with RPMI-8226 leukemia is 1.05 µM; with SN12C renal it was 15 µM; in the experiment on MALME-3M melanoma it was 6.4 µM; in the experiment with ACHN renal, > 35.9 µM; with T-47D breast it was 8.38 µM; with HCT-116 colon it was 4.84 µM. Moreover, the GI50 in the experiment with RXF 393 renal is > 79 µM; in the experiment on KM12 colon, 85 µM; in the experiment on M14 melanoma it was 16.7 µM; with HT29 colon it was 6.13 µM. Further, the TGI in the experiment with RPMI-8226 leukemia, with SN12C renal, with MALME-3M melanoma, in the experiment with ACHN renal, with T-47D breast and with HCT-116 colon was > 100 µM in each case. In addition, the TGI in the experiment with RXF 393 renal, in the experiment with KM12 colon, in the experiment with M14 melanoma and in the experiment with HT29 colon was > 100 µM in each case.

`CC1(C)CCC[C@]2(C)c3ccccc3C(=O)CC12` (stereo not given in full): the GI50 with RPMI-8226 leukemia is 29.7 µM; in the experiment with SN12C renal, 44.9 µM; with MALME-3M melanoma, 29 µM; in the experiment with ACHN renal it was 67.4 µM; with T-47D breast it was 53.5 µM; with HCT-116 colon, 35 µM. Moreover, the GI50 in the experiment on RXF 393 renal was 82.1 µM; in the experiment on KM12 colon it was 23.8 µM; in the experiment on M14 melanoma, 38.6 µM; with HT29 colon it was 43 µM. Further, the TGI in the experiment with RPMI-8226 leukemia, in the experiment with SN12C renal, in the experiment on MALME-3M melanoma, in the experiment with ACHN renal, in the experiment on T-47D breast and in the experiment on HCT-116 colon was > 100 µM each time. Also, the TGI in the experiment with RXF 393 renal, in the experiment on KM12 colon, with M14 melanoma and in the experiment with HT29 colon was > 100 µM throughout.

In the case of `CCOC(=O)/C=C/c1cccc(F)c1`, the TGI in the experiment with RPMI-8226 leukemia, in the experiment with SN12C renal, in the experiment on MALME-3M melanoma, in the experiment on ACHN renal, in the experiment with T-47D breast and in the experiment on HCT-116 colon was > 100 µM each time. The TGI in the experiment on RXF 393 renal, with KM12 colon, with M14 melanoma and in the experiment with HT29 colon was > 100 µM each time.

With `COc1ccc2nc3cc(Cl)ccc3c(Nc3cc(CN4CCCC4)c(O)c(CN4CCCC4)c3)c2n1`, the GI50 in the experiment on RPMI-8226 leukemia was 2.1 µM; in the experiment on SN12C renal it was 1.35 µM; with MALME-3M melanoma, 1.83 µM; in the experiment with ACHN renal, 1.69 µM; in the experiment on T-47D breast, 2.74 µM; with HCT-116 colon, 1.04 µM. Moreover, the GI50 in the experiment with RXF 393 renal is 1.25 µM; in the experiment with KM12 colon, 1.66 µM; with M14 melanoma, 1.62 µM; with HT29 colon, 1.42 µM. Moreover, the TGI with RPMI-8226 leukemia turned out to be 5.7 µM; with SN12C renal, 10.8 µM; in the experiment on MALME-3M melanoma it was 3.32 µM; in the experiment on ACHN renal, 10.3 µM; in the experiment with T-47D breast it was 9.55 µM; in the experiment with HCT-116 colon it was 5.83 µM. Also, the TGI was found to be 3.05 µM with RXF 393 renal, 10.9 µM in the experiment on KM12 colon, 2.97 µM in the experiment on M14 melanoma and 10.5 µM with HT29 colon.
